Earlier results, collected in article PMC10025373, “Red ginseng dietary fiber promotes probiotic properties of Lactiplantibacillus plantarum and alters bacterial metabolism” (Frontiers in Microbiology, 2023).

Experiments:
[1] = system: actomyosin motor; set-up: method as in Komatsu et al., 2004; details: ref Komatsu et al., 2004
[2] = system: Staphylococcus aureus; details: ref Lens et al., 2016
[3] = system: E. coli; details: ref Lens et al., 2016

SMILES | function of the actomyosin motor [1] | antimicrobial activity [2] | antimicrobial activity [3]
CCCCCCO [Hexanol] | modulates the function of the actomyosin motor | – | –
CCCCOC(C)=O [butyl acetate] | – | antimicrobial activity | antimicrobial activity
